# PubChem BioAssay (NCI)
# Where “and” joins values, the source holds several entries; their conditions need not be identical. Equal entries are not always repeated.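 Compound exposure: 48 hours, 5 concentrations, 96-well plates. The concentration for 50% growth inhibition is given as GI50. At the TGI there is no net growth.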 *1 amine or outer side, *2 acyl side, *3 side chain or, on linkers, in order; H or OH if unused. Where a SMILES comes first, the peptide text is derived from it. Bridges are numbered along the chain shown (N, C = ends). [ ]: non-standard residue; d: D form. The star is where a group is joined. ξ: configuration not given here. Phe(3,5-F2) = N[C@@H](Cc1cc(F)cc(F)c1)C(=O)O; ξThr(3S) = C[C@H](O[*:3])C(N[*:1])C(=O)[*:2]; Pro(4R-Me) = C[C@H]1CN[C@H](C(=O)O)C1; Pip = O=C(O)[C@@H]1CCCCN1; X1 = Cc1ccc(N*)c(F)c1; CO = O=C([*:1])[*:2]
# Assays:
# Experiment in all cases: inhibition of tumour cell growth, NCI panel, 48 h
# 786-0 renal = tested on: 786-0 renal
# A498 renal = tested on: A498 renal
# A549 NSCLC = tested on: A549 NSCLC
# ACHN renal = tested on: ACHN renal
# BT-549 breast = tested on: BT-549 breast
# CAKI-1 renal = tested on: CAKI-1 renal
# CCRF-CEM leukemia = tested on: CCRF-CEM leukemia
# COLO 205 colon = tested on: COLO 205 colon
# DU-145 prostate = tested on: DU-145 prostate
# EKVX NSCLC = tested on: EKVX NSCLC
# HCC-2998 colon = tested on: HCC-2998 colon
# HCT-116 colon = tested on: HCT-116 colon
# HCT-15 colon = tested on: HCT-15 colon
# HL-60(TB) leukemia = tested on: HL-60(TB) leukemia
# HOP-62 NSCLC = tested on: HOP-62 NSCLC
# HOP-92 NSCLC = tested on: HOP-92 NSCLC
# HS 578T breast = tested on: HS 578T breast
# HT29 colon = tested on: HT29 colon
# IGROV1 ovarian = tested on: IGROV1 ovarian
# K-562 leukemia = tested on: K-562 leukemia
# KM12 colon = tested on: KM12 colon
# LOX IMVI melanoma = tested on: LOX IMVI melanoma
# M14 melanoma = tested on: M14 melanoma
# MALME-3M melanoma = tested on: MALME-3M melanoma
# MCF7 breast = tested on: MCF7 breast
# MDA-MB-231 breast = tested on: MDA-MB-231 breast
# MDA-MB-435 = tested on: MDA-MB-435
# MOLT-4 leukemia = tested on: MOLT-4 leukemia
# NCI-H226 lung = tested on: NCI-H226 lung
# NCI-H23 lung = tested on: NCI-H23 lung
# NCI-H460 lung = tested on: NCI-H460 lung
# NCI-H522 lung = tested on: NCI-H522 lung
# NCI/ADR-RES ovarian = tested on: NCI/ADR-RES ovarian
# OVCAR-3 ovarian = tested on: OVCAR-3 ovarian
# OVCAR-4 ovarian = tested on: OVCAR-4 ovarian
# OVCAR-5 ovarian = tested on: OVCAR-5 ovarian
# OVCAR-8 ovarian = tested on: OVCAR-8 ovarian
# PC-3 prostate = tested on: PC-3 prostate
# RPMI-8226 leukemia = tested on: RPMI-8226 leukemia
# RXF 393 renal = tested on: RXF 393 renal
# SF-268 CNS = tested on: SF-268 CNS
# SF-295 CNS = tested on: SF-295 CNS
# SF-539 CNS = tested on: SF-539 CNS
# SK-MEL-2 melanoma = tested on: SK-MEL-2 melanoma
# SK-MEL-28 melanoma = tested on: SK-MEL-28 melanoma
# SK-MEL-5 melanoma = tested on: SK-MEL-5 melanoma
# SK-OV-3 ovarian = tested on: SK-OV-3 ovarian
# SN12C renal = tested on: SN12C renal
# SNB-19 CNS = tested on: SNB-19 CNS
# SNB-75 CNS = tested on: SNB-75 CNS
# SR leukemia = tested on: SR leukemia
# SW-620 colon = tested on: SW-620 colon
# T-47D breast = tested on: T-47D breast
# TK-10 renal = tested on: TK-10 renal
# U251 CNS = tested on: U251 CNS
# UACC-257 melanoma = tested on: UACC-257 melanoma
# UACC-62 melanoma = tested on: UACC-62 melanoma
# UO-31 renal = tested on: UO-31 renal
structure (smiles),measurement,setting,value
"Cc1ccc(NC(=O)N[C@@H](Cc2cc(F)cc(F)c2)C(=O)NC2C(=O)N3CCC[C@H]3C(=O)N3CCCC[C@H]3C(=O)N[C@@H](C)C(=O)N3C[C@H](C)C[C@H]3C(=O)O[C@H]2C)c(F)c1 (stereo partly drawn) ({X1-CO}-[Phe(3,5-F2)][ξThr(3S)]P[Pip]A[Pro(4R-Me)]; ester 2-C)",GI50,786-0 renal,422 nM and 633 nM
same,TGI,786-0 renal,50000 nM and > 100000 nM
same,GI50,A498 renal,5140 nM and 950 nM
same,TGI,A498 renal,41200 nM and 10200 nM
same,GI50,A549 NSCLC,223 nM and 640 nM
same,TGI,A549 NSCLC,50000 nM and > 100000 nM
same,GI50,ACHN renal,321 nM and 528 nM
same,TGI,ACHN renal,50000 nM and > 100000 nM
same,GI50,BT-549 breast,283 nM and 260 nM
same,TGI,BT-549 breast,12000 nM and 11800 nM
same,GI50,CAKI-1 renal,210 nM and 288 nM
same,TGI,CAKI-1 renal,50000 nM and > 100000 nM
same,GI50,CCRF-CEM leukemia,236 nM and 127 nM
same,TGI,CCRF-CEM leukemia,50000 nM and 30100 nM
same,GI50,COLO 205 colon,124 nM and 156 nM
same,TGI,COLO 205 colon,338 nM and 496 nM
same,GI50,DU-145 prostate,349 nM and 147 nM
same,TGI,DU-145 prostate,50000 nM and > 100000 nM
same,GI50,EKVX NSCLC,252 nM and 377 nM
same,TGI,EKVX NSCLC,50000 nM and > 100000 nM
same,GI50,HCC-2998 colon,255 nM and 390 nM
same,TGI,HCC-2998 colon,9170 nM and 10800 nM
same,GI50,HCT-116 colon,266 nM and 65.3 nM
same,TGI,HCT-116 colon,7470 nM and 11100 nM
same,GI50,HCT-15 colon,231 nM and 357 nM
same,TGI,HCT-15 colon,10000 nM and 14900 nM
same,GI50,HL-60(TB) leukemia,213 nM and 47.4 nM
same,TGI,HL-60(TB) leukemia,8610 nM and 2050 nM
same,GI50,HOP-62 NSCLC,235 nM and 322 nM
same,TGI,HOP-62 NSCLC,50000 nM and 46300 nM
same,GI50,HOP-92 NSCLC,163 nM and 251 nM
same,TGI,HOP-92 NSCLC,9010 nM and 3050 nM
same,GI50,HS 578T breast,394 nM
same,TGI,HS 578T breast,50000 nM and 8560 nM
same,GI50,HT29 colon,276 nM and 302 nM
same,TGI,HT29 colon,10200 nM and 10100 nM
same,GI50,IGROV1 ovarian,2470 nM and 828 nM
same,TGI,IGROV1 ovarian,40400 nM and > 100000 nM
same,GI50,K-562 leukemia,134 nM and 43.7 nM
same,TGI,K-562 leukemia,50000 nM and > 100000 nM
same,GI50,KM12 colon,533 nM and 384 nM
same,TGI,KM12 colon,23500 nM and 24300 nM
same,GI50,LOX IMVI melanoma,131 nM and 425 nM
same,TGI,LOX IMVI melanoma,6950 nM and 24400 nM
same,GI50,M14 melanoma,297 nM and 245 nM
same,TGI,M14 melanoma,9860 nM and 16400 nM
same,GI50,MALME-3M melanoma,410 nM and 561 nM
same,TGI,MALME-3M melanoma,17100 nM and 19100 nM
same,GI50,MCF7 breast,206 nM and 195 nM
same,TGI,MCF7 breast,50000 nM and 53500 nM
same,GI50,MDA-MB-231 breast,166 nM and 279 nM
same,TGI,MDA-MB-231 breast,1840 nM and 12800 nM
same,GI50,MDA-MB-435,230 nM and 117 nM
same,TGI,MDA-MB-435,12300 nM and 14600 nM
same,GI50,MOLT-4 leukemia,545 nM and 669 nM
same,TGI,MOLT-4 leukemia,25800 nM and 22900 nM
same,GI50,NCI-H226 lung,272 nM and 368 nM
same,TGI,NCI-H226 lung,40500 nM and 7750 nM
same,GI50,NCI-H23 lung,228 nM
same,TGI,NCI-H23 lung,39400 nM
same,GI50,NCI-H460 lung,220 nM and 222 nM
same,TGI,NCI-H460 lung,50000 nM and 21000 nM
same,GI50,NCI-H522 lung,211 nM and 119 nM
same,TGI,NCI-H522 lung,8500 nM and 10700 nM
same,GI50,NCI/ADR-RES ovarian,1730 nM and 1700 nM
same,TGI,NCI/ADR-RES ovarian,50000 nM and > 100000 nM
same,GI50,OVCAR-3 ovarian,360 nM and 312 nM
same,TGI,OVCAR-3 ovarian,44900 nM and 13200 nM
same,GI50,OVCAR-4 ovarian,268 nM and 98.9 nM
same,TGI,OVCAR-4 ovarian,50000 nM and > 100000 nM
same,GI50,OVCAR-5 ovarian,275 nM and 506 nM
same,TGI,OVCAR-5 ovarian,9740 nM and 16000 nM
same,GI50,OVCAR-8 ovarian,194 nM and 64.6 nM
same,TGI,OVCAR-8 ovarian,50000 nM and > 100000 nM
same,GI50,PC-3 prostate,181 nM and 111 nM
same,TGI,PC-3 prostate,50000 nM and > 100000 nM
same,GI50,RPMI-8226 leukemia,119 nM and 38 nM
same,TGI,RPMI-8226 leukemia,6250 nM and 1300 nM
same,GI50,RXF 393 renal,2870 nM and 778 nM
same,TGI,RXF 393 renal,17500 nM and 9160 nM
same,GI50,SF-268 CNS,393 nM and 446 nM
same,TGI,SF-268 CNS,50000 nM and 48600 nM
same,GI50,SF-295 CNS,200 nM and 240 nM
same,TGI,SF-295 CNS,11500 nM and 3580 nM
same,GI50,SF-539 CNS,696 nM and 709 nM
same,TGI,SF-539 CNS,11100 nM and 16900 nM
same,GI50,SK-MEL-2 melanoma,198 nM and 164 nM
same,TGI,SK-MEL-2 melanoma,7580 nM and 921 nM
same,GI50,SK-MEL-28 melanoma,467 nM and 709 nM
same,TGI,SK-MEL-28 melanoma,13800 nM and 18400 nM
same,GI50,SK-MEL-5 melanoma,199 nM and 397 nM
same,TGI,SK-MEL-5 melanoma,7290 nM and 7900 nM
same,GI50,SK-OV-3 ovarian,225 nM and 360 nM
same,TGI,SK-OV-3 ovarian,17400 nM and 7040 nM
same,GI50,SN12C renal,171 nM and 303 nM
same,TGI,SN12C renal,50000 nM and > 100000 nM
same,GI50,SNB-19 CNS,208 nM and 187 nM
same,TGI,SNB-19 CNS,50000 nM and > 100000 nM
same,GI50,SNB-75 CNS,289 nM
same,TGI,SNB-75 CNS,50000 nM
same,GI50,SR leukemia,334 nM and 626 nM
same,TGI,SR leukemia,12100 nM and 21600 nM
same,GI50,SW-620 colon,433 nM and 483 nM
same,TGI,SW-620 colon,50000 nM and > 100000 nM
same,GI50,T-47D breast,222 nM and 314 nM
same,TGI,T-47D breast,50000 nM and 18000 nM
same,GI50,TK-10 renal,385 nM and 791 nM
same,TGI,TK-10 renal,50000 nM and 42700 nM
same,GI50,U251 CNS,210 nM and 336 nM
same,TGI,U251 CNS,50000 nM and > 100000 nM
same,GI50,UACC-257 melanoma,191 nM and 316 nM
same,TGI,UACC-257 melanoma,7580 nM and 7520 nM
same,GI50,UACC-62 melanoma,247 nM and 451 nM
same,TGI,UACC-62 melanoma,10700 nM and 19300 nM
same,GI50,UO-31 renal,585 nM and 456 nM
same,TGI,UO-31 renal,50000 nM and > 100000 nM
